Measured values published in ChEMBL document CHEMBL1201862, “PubChem BioAssay data set” (2004).
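96-well plates; 48 h exposure; 5 concentrations. Endpoints by linear interpolation between flanking doses. Not reached: highest tested concentration assigned. At the GI50, growth is halved.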 Active and inactive are the calls of the source. Rule as the data show it: active = GI50 up to about 1.1 µM and inactive = higher.

What was measured:
Assay in all cases: NCI-60 cell line screen, 48 h
SK-MEL-28 = test system: SK-MEL-28
A498 = test system: A498
U-251 = test system: U-251
OVCAR-3 = test system: OVCAR-3
UACC-257 = test system: UACC-257
ACHN = test system: ACHN
HOP-92 = test system: HOP-92
UACC-62 = test system: UACC-62
KM-20L2 = test system: KM-20L2
SNB-78 = test system: SNB-78
HOP-62 = test system: HOP-62
OVCAR-4 = test system: OVCAR-4
M14 = test system: M14
SF-268 = test system: SF-268
HCC 2998 = test system: HCC 2998
NCI-H522 = test system: NCI-H522
T47D = test system: T47D
DU-145 = test system: DU-145
Hs-578T = test system: Hs-578T
PC-3 = test system: PC-3

Row | Compound | GI50 (SK-MEL-28) | GI50 (A498) | GI50 (U-251) | GI50 (OVCAR-3) | GI50 (UACC-257) | GI50 (ACHN) | GI50 (HOP-92) | GI50 (UACC-62) | GI50 (KM-20L2) | GI50 (SNB-78) | GI50 (HOP-62) | GI50 (OVCAR-4) | GI50 (M14) | GI50 (SF-268) | GI50 (HCC 2998) | GI50 (NCI-H522) | GI50 (T47D) | GI50 (DU-145) | GI50 (Hs-578T) | GI50 (PC-3)
1 | COCCOCOc1ccc(OCOCCOC)c2c1C(=O)c1ccccc1C2=O | > 100 µM (inactive) | 68.7 µM (inactive) | 41.9 µM (inactive) | 36.9 µM (inactive) | 42.8 µM (inactive) | 62.7 µM (inactive) | > 79.6 µM (inactive) | 47.6 µM (inactive) | 32 µM (inactive) | > 63.1 µM (inactive) | > 100 µM (inactive) | 59.4 µM (inactive) | > 100 µM (inactive) | 31.3 µM (inactive) | 61.7 µM (inactive) |  |  |  |  | 
2 | COC(=O)CCC(=O)N1C/C(=C\c2ccccc2)C(=O)/C(=C/c2ccccc2)C1 | 2.31 µM (inactive) | 2.24 µM (inactive) | 1.24 µM (inactive) | 2.31 µM (inactive) | 1.89 µM (inactive) | 1.97 µM (inactive) | 6.03 µM (inactive) | 2.11 µM (inactive) | 2.24 µM (inactive) | 2.77 µM (inactive) | 12.6 µM (inactive) | 2.03 µM (inactive) | 1.98 µM (inactive) | 2.28 µM (inactive) | 1.67 µM (inactive) |  |  |  |  | 
3 | COc1cc2c(cc1O)[C@H](C)C(c1ccc(OC)c(OC)c1)O2 (stereo partly specified) | 9.75 µM (inactive) | 22.6 µM (inactive) | 5.87 µM (inactive) | 5.66 µM (inactive) | 10.9 µM (inactive) | 10.6 µM (inactive) | 10.4 µM (inactive) | 3.09 µM (inactive) | 18.8 µM (inactive) | 17.3 µM (inactive) | 9.46 µM (inactive) | 13 µM (inactive) | 4.68 µM (inactive) | 44.4 µM (inactive) | 7.6 µM (inactive) | 9.23 µM (inactive) |  |  |  | 
4 | Cc1cc2c(cc1C)[n+]([O-])c(C(=O)/C=C/c1ccccc1[N+](=O)[O-])c(C)[n+]2[O-] | 71.4 µM (inactive) | 61.2 µM (inactive) | 32.1 µM (inactive) | 50.7 µM (inactive) | 75.9 µM (inactive) | 46.3 µM (inactive) | 34.4 µM (inactive) | 40 µM (inactive) | > 100 µM (inactive) | 27 µM (inactive) | 34 µM (inactive) | > 100 µM (inactive) | 74.6 µM (inactive) | 34.2 µM (inactive) | 71.6 µM (inactive) | 28.6 µM (inactive) | > 77.3 µM (inactive) | > 100 µM (inactive) | 39.3 µM (inactive) | > 100 µM (inactive)
5 | O=C(O/N=C1/CCC/C1=C\c1ccccc1)c1ccc([N+](=O)[O-])cc1 | > 100 µM (inactive) | > 100 µM (inactive) | > 100 µM (inactive) | > 100 µM (inactive) | > 100 µM (inactive) | > 100 µM (inactive) | > 100 µM (inactive) | > 100 µM (inactive) | > 100 µM (inactive) | > 100 µM (inactive) | 96.6 µM (inactive) | > 100 µM (inactive) | > 100 µM (inactive) | 71.6 µM (inactive) | 11.7 µM (inactive) | > 100 µM (inactive) |  |  |  | 
6 | CN1C2(c3ccccc3)C(C(=O)c3ccccc3)=C(C(=O)c3ccccc3)C1(c1ccccc1)c1c(-c3ccccc3)sc(-c3ccccc3)c12 | > 100 µM (inactive) | > 100 µM (inactive) | > 100 µM (inactive) | > 100 µM (inactive) | > 100 µM (inactive) | > 100 µM (inactive) | > 100 µM (inactive) | > 100 µM (inactive) | > 100 µM (inactive) | > 100 µM (inactive) | > 100 µM (inactive) | > 100 µM (inactive) | > 100 µM (inactive) | > 100 µM (inactive) | > 100 µM (inactive) | > 100 µM (inactive) |  |  |  | 
7 | COc1ccc2c(c1)C(=O)Cc1ccccc1CC2 | > 100 µM (inactive) | > 100 µM (inactive) | > 100 µM (inactive) | > 100 µM (inactive) | > 100 µM (inactive) | > 100 µM (inactive) | > 100 µM (inactive) | > 100 µM (inactive) | > 100 µM (inactive) | > 100 µM (inactive) |  | > 100 µM (inactive) | > 100 µM (inactive) | > 100 µM (inactive) | > 100 µM (inactive) | > 100 µM (inactive) |  |  |  | 
8 | CC1=C(C)CC2(SC1)C(=O)c1ccccc1C2=O |  | > 100 µM (inactive) | > 100 µM (inactive) |  | > 100 µM (inactive) | > 100 µM (inactive) | 65.8 µM (inactive) | > 100 µM (inactive) | > 100 µM (inactive) | > 100 µM (inactive) | > 100 µM (inactive) | > 100 µM (inactive) | > 100 µM (inactive) | > 100 µM (inactive) | > 100 µM (inactive) | > 100 µM (inactive) |  |  |  | 
9 | CCc1ccccc1NC(=O)C(=O)C1C(=O)N(c2ccccc2)N=C1N (stereo unspecified) | > 100 µM (inactive) | > 100 µM (inactive) | > 100 µM (inactive) | > 100 µM (inactive) | > 100 µM (inactive) | > 100 µM (inactive) | > 100 µM (inactive) | > 100 µM (inactive) | > 100 µM (inactive) | > 100 µM (inactive) | > 100 µM (inactive) | > 100 µM (inactive) | > 100 µM (inactive) | > 100 µM (inactive) | > 100 µM (inactive) |  |  |  |  | 
10 | COc1ccccc1CCc1cc(OC)c(OC)c(OC)c1 | 65.6 µM (inactive) | 57.9 µM (inactive) | 40.4 µM (inactive) | 41.3 µM (inactive) | 45 µM (inactive) | 51.9 µM (inactive) | 26.8 µM (inactive) | 65 µM (inactive) | 55.8 µM (inactive) | 43 µM (inactive) | > 100 µM (inactive) | 40.6 µM (inactive) | 47.6 µM (inactive) | 65.9 µM (inactive) |  | 26.8 µM (inactive) |  |  |  | 
11 | COc1ccc(/C=C\c2cc(OC)c(OC)c(OC)c2)cc1OC(=O)CC(N)C(=O)O (stereo unspecified) | 0.000597 µM (active) | 0.00269 µM (active) | 0.00262 µM (active) | 0.00224 µM (active) | 0.00171 µM (active) | 0.00437 µM (active) | 0.00052 µM (active) | 0.00113 µM (active) | 3.7 µM (inactive) | 0.00208 µM (active) | 0.00382 µM (active) | 0.189 µM (active) | 0.00247 µM (active) | 0.00305 µM (active) | 0.106 µM (active) | 0.00132 µM (active) | < 0.01 µM (active) | 0.00293 µM (active) | 0.000426 µM (active) | 0.000776 µM (active)
12 | COc1ccc(-c2ccccc2)c2[nH]c3c(c12)CCNC3=O |  | > 100 µM (inactive) | > 100 µM (inactive) | > 100 µM (inactive) | > 100 µM (inactive) |  | > 100 µM (inactive) | > 100 µM (inactive) | > 100 µM (inactive) | > 100 µM (inactive) | > 100 µM (inactive) | > 100 µM (inactive) | > 100 µM (inactive) | > 100 µM (inactive) | > 100 µM (inactive) | > 100 µM (inactive) |  |  |  | 
13 | CC(CNCCCNCCNCCCNCO)[N+](=O)[O-] (stereo unspecified) | 13.6 µM (inactive) | 17.5 µM (inactive) | 15.9 µM (inactive) | 16.5 µM (inactive) | 13.3 µM (inactive) | 16.7 µM (inactive) | 2.65 µM (inactive) | 16 µM (inactive) | 16.9 µM (inactive) | 20.6 µM (inactive) | > 100 µM (inactive) | 14.5 µM (inactive) | 11.4 µM (inactive) | 15.7 µM (inactive) | 16.6 µM (inactive) |  |  |  |  | 
